Experiments:
ERK1 and ERK2 = assay: PD098059 dependent inhibition of ERK activation (immunoblot with phosphospecific anti-ERK antibodies); type: cell-based, mouse; details: GRgp(278) cells, 48 hours inhibitor plus LIF, then G-CSF 30 ng/ml 10 minutes
Procedure: For analysis of STAT3 and ERK phosphorylation, 1×10^6 ES cells were plated per well of 6-well dishes. Cells were serum starved and treated with cytokines as described above and then lysed in 100 μl SDS sample buffer. Ten microlitre aliquots were fractionated on a 10% SDS polyacrylamide gel, electroblotted onto nitrocellulose and probed with anti-ERK and anti-STAT3 antibodies according to the directions provided by supplier (New England Biolabs).
The continued proliferation of undifferentiated ES cells at inhibitory concentrations of PD098059 confirms that gp130-dependent activation of ERK1 and ERK2 is not required for the propagation of ES cells.

ZIN40 ES cells = assay: Chimaera analysis of ES cell pluripotency; type: in vivo; details: 48 hours LIF plus 25 μM PD098059, 24 hours LIF only, injected into mouse blastocysts, day 9.5
Procedure: ZIN40 ES cells were treated wit 25 μM PD098059 plus 5 U/ml LIF for 48 hours, re-fed with medium containing LIF for a further 24 hours and than microinjected into C57BL/6 blastcysts. Embryos were collected at day 9.5 of pregnancy and stained for β-galactosidase activity.
ZIN40 ES cells were injected into C57BL/6 blastocysts and transferred into pseudopregnant mice. Mice were sacrificed at day 9.5 of pregnancy and the embryos were stained with X-gal.
We therefore determined whether ES cells propagated in the absence of gp130-dependent ERK. signaling have the capacity to incorporate into the developing embryo and differentiate appropriately. Cells were cultured at low density (1000 cell/cm^2) for 48 hours in the presence of LIF plus 25 μM PD098059, or in the absence of LIF. They were then re-fed with medium containing LIF but lacking the inhibitor for a further 24 hours before microinjection into mouse blastocysts. ZIN40 cells were used in this experiment, since they carry a nuclear localised β-galactosidase marker that is widely expressed in differentiated cell types. […] However, cells cultured in the absence of LIF for 48 hours were incapable of colonizing the embryo.

IOUD2 ES cells = assay: Aggregate (embryoid body) culture, staining for Oct4 β-galactosidase; type: cell-based, mouse
From the text: Aggregation induces ES cells to differentiate and form structures known as embryoid bodies that contain multiple differentiated cell types. Undifferentiated cells are largely or wholly eliminated during embryoid formation due to induced differentiation and/or apoptosis.
IOUD2 ES cells, which carry a targeted integration of βgeo into the Oct4 locus were used to enable visualisation of undifferentiated cells by histochemical staining for β-galactosidase. Aggregates were formed in hanging drops by seeding 100 cells/20 μl drop in the presence of 0, 25, 50, 75 or 100 μm PD089059. Aggregates were maintained for 6 days, then transferred to gelatin-coated dishes and allowed to attach overnight. Cultures were then fixed and stained for β-galactosidase activity. In the absence of the Mek inhibitor, the embryoid bodies were well differentiated and very few Oct4 β-galactosidase expressing cells were present in the outgrowths. […] At PD089059 concentrations of 75-100 μm, the great majority of cells were undifferentiated.

[1] = target: T1, GRgp(278) chimeric receptor (UniProt Q00560+Q99062); assay: Self-renewal response of GRgp130 transfectants to G-CSF; type: cell-based; details: GRgp(278) transfectants, 6 days, 300 fg-30 ng/ml G-CSF
T1 construct: fusing the extracellular domain of the human G-CSFR to an EcoRI fragment of mouse gp130; an EcoRI fragment of mouse gp130 containing the transmembrane domain and the entire cytoplasmic region; expressed in transfected cells
T1 sequence (Q00560 640-917 limits assumed, change not shown, one chain of several): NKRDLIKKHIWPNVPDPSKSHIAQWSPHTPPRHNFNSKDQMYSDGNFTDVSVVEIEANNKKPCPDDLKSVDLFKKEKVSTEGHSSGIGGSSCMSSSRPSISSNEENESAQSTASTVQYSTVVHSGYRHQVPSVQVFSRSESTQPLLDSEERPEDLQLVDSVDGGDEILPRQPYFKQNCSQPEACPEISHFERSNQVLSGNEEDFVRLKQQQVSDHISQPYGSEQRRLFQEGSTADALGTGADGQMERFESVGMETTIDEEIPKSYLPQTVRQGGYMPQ
Procedure: (§1) Photomicrographs were taken of X-gal stained, representive colonies formed by GRgp(278) and GRgp(Y118F) transfectants after 6 days culture with 300 fg, 30 pg and 30 ng/ml of G-CSF. Photomicrographs were also taken of representative colonies formed by GRgp(278) and GRgp(Y118F) transfectants after 6 days culture with no cytokine, IL-6 (100 ng/ml+sIL-6R), G-CSF(30 ng/ml) or, IL-6(100 ng/ml+sIL-6R) and G-CSF(30 ng/ml).
(§2) All assays were performed in triplicate.

[2] = target: T2, GRgp(Y118F) chimeric receptor (UniProt Q00560+Q99062, Y757F); assay: as above; type: cell-based; details: GRgp(Y118F) ES cells, 6 days, 300 fg-30 ng/ml G-CSF
T2 construct: fusing the extracellular domain of the human G-CSFR to an EcoRI fragment of mouse gp130; an EcoRI fragment of mouse gp130 containing the transmembrane domain and the entire cytoplasmic region; expressed in transfected cells
T2 sequence (Q99062+Q00560 with tags, fused parts or gaps Q00560:Y757F): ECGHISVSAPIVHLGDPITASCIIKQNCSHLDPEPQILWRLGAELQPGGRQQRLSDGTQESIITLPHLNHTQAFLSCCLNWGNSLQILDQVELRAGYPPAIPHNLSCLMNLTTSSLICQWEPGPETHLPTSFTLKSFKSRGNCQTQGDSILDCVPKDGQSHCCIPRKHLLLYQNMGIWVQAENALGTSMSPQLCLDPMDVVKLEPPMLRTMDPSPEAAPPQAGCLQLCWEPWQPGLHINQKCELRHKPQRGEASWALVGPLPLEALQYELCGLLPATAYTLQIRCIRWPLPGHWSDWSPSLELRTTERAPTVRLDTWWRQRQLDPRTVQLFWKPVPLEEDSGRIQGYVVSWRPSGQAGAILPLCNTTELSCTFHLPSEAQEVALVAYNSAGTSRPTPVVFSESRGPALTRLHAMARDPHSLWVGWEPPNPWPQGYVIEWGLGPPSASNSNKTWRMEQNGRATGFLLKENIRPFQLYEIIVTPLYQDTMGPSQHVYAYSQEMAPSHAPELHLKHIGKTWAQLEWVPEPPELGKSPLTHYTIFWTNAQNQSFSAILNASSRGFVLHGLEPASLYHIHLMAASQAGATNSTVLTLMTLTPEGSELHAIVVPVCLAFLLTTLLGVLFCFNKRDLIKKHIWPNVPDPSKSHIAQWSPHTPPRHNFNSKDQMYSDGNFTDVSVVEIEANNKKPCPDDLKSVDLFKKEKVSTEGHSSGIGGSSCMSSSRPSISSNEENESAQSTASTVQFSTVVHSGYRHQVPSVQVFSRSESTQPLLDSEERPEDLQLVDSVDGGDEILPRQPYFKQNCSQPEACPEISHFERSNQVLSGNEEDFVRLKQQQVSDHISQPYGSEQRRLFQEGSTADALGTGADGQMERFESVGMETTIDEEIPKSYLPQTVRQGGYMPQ
Procedure: as §1, §2

Procedure for D027 ES cells: Data were collected as means±s.e.m for duplicate determinations of triplicate samples normalized relative to the response to LIF. […] Data was collected as means±s.e.m for duplicate determinations of triplicate samples normalized relative to the maximum response of cells to treatment with LIF(111 U/ml) plus vehicle.
Expression of β-galactosidase from the Oct-4 locus in D027 cells was quantitated in an ONPG assay. Cells were plated at 5000 per well in a 24-well dishes and cultured for 6 days in the presence or absence of cytokine. When cells were treated with PD098059, they were plated at 2500 per well and cultured overnight in normal growth medium prior to addition of the inhibitor. On day 6, cells were washed once with PBS and lysed in 0.4 ml of 0.25 M Tris pH 7.5, 0.5 mM DTT, 0.5 % NP40. Lysate (40 μl) was mixed with 100 μl of ONPG buffer (60 mM Na2HPO4, 40 mM NaH2PO4, 10 mM KCl, 1 mM MgCl2, 50 mM 2-mercaptoethanol, 1.2 mM ONPG) in a microtitre plate, incubated at 37° C. for 2-4 hours and the absorbance was read at 420 nm. All assays were performed in triplicate.
D027 cells have a LacZ gene inserted within the stem cell specific gene, Oct-4. As a consequence, expression of this integrated reporter gene is restricted to undifferentiated ES cells and the resulting β-galactosidase activity provides a measure of stem cell self-renewal.
To test this hypothesis, D027 cells were cultured in the presence of the specific MEK inhibitor, PD098059. A sub-saturating concentration of LIF (5 U/ml) was used in these experiments to increase these sensitivity of the assay to changes in self-renewal signaling.
Self-renewal ES cells was assayed flowing treatment with 0.1-100 U/ml LIF either in the presence of 25 μM PD098059 or vehicle (02% DMSO).

Molecule: COc1cccc(-c2cc(=O)c3ccccc3o2)c1N [PD098059]
- concentration at which G-CSF dependent phosphorylation of ERK1 and ERK2 was effectively blocked (ERK1 and ERK2): 25 µM
- concentration range over which G-CSF dependent phosphorylation of ERK1 and ERK2 was progressively reduced (ERK1 and ERK2): 3 to 12 µM
- contribution of treated ES cells to chimaeras (β-galactosidase staining of mid-gestation embryos) (ZIN40 ES cells): contributed to chimaeras
- representation of undifferentiated β-galactosidase positive cells (IOUD2 ES cells; 0, 25, 50, 75 or 100 μm, aggregates 6 days, no inhibitor as control): increased in a dose dependent fashion
- concentration at which the great majority of cells were undifferentiated (IOUD2 ES cells; aggregates maintained 6 days): 75 to 100 µM
- effect on dose response of ES cells to LIF (β-galactosidase activity) (D027 ES cells; 25 μM PD098059 versus vehicle, 0.1-100 U/ml LIF): increased the level of β-galactosidase activity at all concentrations of LIF
- effect on ES cell self-renewal compared with vehicle alone (D027 ES cells; 3-25 μM PD098059, sub-saturating LIF (5 U/ml)): did not inhibit self-renewal
- effect on differentiation of ES cells in the absence of LIF (D027 ES cells; absence of LIF): did not block the differentiation of ES cells
- concentration at which maximum level of self-renewal is achieved (D027 ES cells; sub-saturating LIF (5 U/ml), dose dependent increase): 12 to 25 µM

B1: G-CSF: cytokine ligand used to stimulate chimaeric G-CSFR/gp130 receptors in ES cell transfectants (protein, UniProt P09919 31-207, looked up)
Granulocyte …: TPLGPASSLPQSFLLKCLEQVRKIQGDGAALQEKLVSECATYKLCHPEELVLLGHSLGIPWAPLSSCPSQALQLAGCLSQLHSGLFLYQGLLQALEGISPELGPTLDTLQLDVADFATTIWQQMEELGMAPALQPTQGAMPAFASAFQRRAGGVLVASHLQSFLEVSYRVLRHLAQP
- G-CSF concentration at which self-renewal reaches a plateau [1]: 3 to 30 ng/mL
- G-CSF concentration at which maximal self-renewal response was achieved [2]: 30 pg/mL

— US6875608B1, “Propagation and/or derivation of embryonic stem cells” (University of Edinburgh, priority 1998, dated 2005)
